pIC50: −log10 of the molar value. Calls of active or inactive are those of the source. The calls are words filed in the database; no cut-off is given here.
Key:
K562 = experiment: Cytotoxicity against human K562 cells after 48 hrs by MTT assay; assay type: functional, cell-based; details: K562, 48 h
A549 = experiment: Cytotoxicity against human A549 cells after 48 hrs by MTT assay; assay type: functional, cell-based; details: A549, 48 h
HL-60 = experiment: Cytotoxicity against human HL60 cells after 48 hrs by MTT assay; assay type: functional, cell-based; details: HL-60, 48 h
[1] = molecular target: T1, DNA topoisomerase 2-alpha (Homo sapiens, UniProt P11388); experiment: Inhibition of human DNA topoisomerase 2alpha-mediated relaxation of supercoiled pBR322 at 20 uM after 30 mins by agarose gel electrophoresis
[2] = molecular target: T1, DNA topoisomerase 2-alpha; experiment: Inhibition of human DNA topoisomerase 2alpha using pBR322 DNA at 2 uM after 30 mins by agarose gel electrophoresis
HeLa = experiment: Cytotoxicity against human HeLa cells after 48 hrs by MTT assay; assay type: functional, cell-based
[3] = molecular target: T1, DNA topoisomerase 2-alpha; experiment: Inhibition of human topoisomerase 2alpha assessed as formation of linear form of supercoiled pBR322 DNA at 50 uM after 30 mins by agarose gel electrophoresis
[4] = molecular target: T1, DNA topoisomerase 2-alpha; details: 100 uM
Description: Inhibition of human topoisomerase 2alpha assessed as formation of linear form of supercoiled pBR322 DNA at 100 uM after 30 mins by agarose gel electrophoresis

[5] = molecular target: T1, DNA topoisomerase 2-alpha; experiment: Ratio of mansonone-E IC50 to compound IC50 for human DNA topoisomerase 2alpha
[6] = molecular target: T1, DNA topoisomerase 2-alpha; experiment: Inhibition of human DNA topoisomerase 2alpha using pBR322 DNA after 30 mins by agarose gel electrophoresis
[7] = molecular target: T2, DNA topoisomerase 1 (Homo sapiens) (UniProt P11387); experiment: Inhibition of DNA topoisomerase 1 (unknown origin)-mediated relaxation of supercoiled pBR322 at 50 uM after 30 mins by agarose gel electrophoresis
T2 sequence (whole entry): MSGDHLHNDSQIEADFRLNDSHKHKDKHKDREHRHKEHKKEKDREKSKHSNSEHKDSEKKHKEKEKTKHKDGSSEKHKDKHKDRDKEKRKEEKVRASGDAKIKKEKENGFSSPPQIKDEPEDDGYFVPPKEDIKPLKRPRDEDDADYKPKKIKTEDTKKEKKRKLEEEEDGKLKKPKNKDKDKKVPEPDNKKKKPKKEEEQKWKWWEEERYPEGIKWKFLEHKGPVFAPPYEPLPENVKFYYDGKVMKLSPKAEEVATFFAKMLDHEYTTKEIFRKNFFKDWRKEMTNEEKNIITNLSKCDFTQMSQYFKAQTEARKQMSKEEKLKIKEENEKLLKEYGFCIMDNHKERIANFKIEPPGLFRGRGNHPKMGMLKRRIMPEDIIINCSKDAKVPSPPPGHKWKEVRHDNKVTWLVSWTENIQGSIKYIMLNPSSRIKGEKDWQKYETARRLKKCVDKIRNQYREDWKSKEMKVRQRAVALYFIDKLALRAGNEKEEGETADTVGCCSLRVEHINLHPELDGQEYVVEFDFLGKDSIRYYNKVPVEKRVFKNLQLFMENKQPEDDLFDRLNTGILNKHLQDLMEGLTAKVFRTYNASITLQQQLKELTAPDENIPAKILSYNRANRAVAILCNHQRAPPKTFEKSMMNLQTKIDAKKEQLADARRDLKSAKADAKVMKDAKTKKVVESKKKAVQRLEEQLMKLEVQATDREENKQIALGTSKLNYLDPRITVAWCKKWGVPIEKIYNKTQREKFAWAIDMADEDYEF

T1 sequence (P11388 whole entry): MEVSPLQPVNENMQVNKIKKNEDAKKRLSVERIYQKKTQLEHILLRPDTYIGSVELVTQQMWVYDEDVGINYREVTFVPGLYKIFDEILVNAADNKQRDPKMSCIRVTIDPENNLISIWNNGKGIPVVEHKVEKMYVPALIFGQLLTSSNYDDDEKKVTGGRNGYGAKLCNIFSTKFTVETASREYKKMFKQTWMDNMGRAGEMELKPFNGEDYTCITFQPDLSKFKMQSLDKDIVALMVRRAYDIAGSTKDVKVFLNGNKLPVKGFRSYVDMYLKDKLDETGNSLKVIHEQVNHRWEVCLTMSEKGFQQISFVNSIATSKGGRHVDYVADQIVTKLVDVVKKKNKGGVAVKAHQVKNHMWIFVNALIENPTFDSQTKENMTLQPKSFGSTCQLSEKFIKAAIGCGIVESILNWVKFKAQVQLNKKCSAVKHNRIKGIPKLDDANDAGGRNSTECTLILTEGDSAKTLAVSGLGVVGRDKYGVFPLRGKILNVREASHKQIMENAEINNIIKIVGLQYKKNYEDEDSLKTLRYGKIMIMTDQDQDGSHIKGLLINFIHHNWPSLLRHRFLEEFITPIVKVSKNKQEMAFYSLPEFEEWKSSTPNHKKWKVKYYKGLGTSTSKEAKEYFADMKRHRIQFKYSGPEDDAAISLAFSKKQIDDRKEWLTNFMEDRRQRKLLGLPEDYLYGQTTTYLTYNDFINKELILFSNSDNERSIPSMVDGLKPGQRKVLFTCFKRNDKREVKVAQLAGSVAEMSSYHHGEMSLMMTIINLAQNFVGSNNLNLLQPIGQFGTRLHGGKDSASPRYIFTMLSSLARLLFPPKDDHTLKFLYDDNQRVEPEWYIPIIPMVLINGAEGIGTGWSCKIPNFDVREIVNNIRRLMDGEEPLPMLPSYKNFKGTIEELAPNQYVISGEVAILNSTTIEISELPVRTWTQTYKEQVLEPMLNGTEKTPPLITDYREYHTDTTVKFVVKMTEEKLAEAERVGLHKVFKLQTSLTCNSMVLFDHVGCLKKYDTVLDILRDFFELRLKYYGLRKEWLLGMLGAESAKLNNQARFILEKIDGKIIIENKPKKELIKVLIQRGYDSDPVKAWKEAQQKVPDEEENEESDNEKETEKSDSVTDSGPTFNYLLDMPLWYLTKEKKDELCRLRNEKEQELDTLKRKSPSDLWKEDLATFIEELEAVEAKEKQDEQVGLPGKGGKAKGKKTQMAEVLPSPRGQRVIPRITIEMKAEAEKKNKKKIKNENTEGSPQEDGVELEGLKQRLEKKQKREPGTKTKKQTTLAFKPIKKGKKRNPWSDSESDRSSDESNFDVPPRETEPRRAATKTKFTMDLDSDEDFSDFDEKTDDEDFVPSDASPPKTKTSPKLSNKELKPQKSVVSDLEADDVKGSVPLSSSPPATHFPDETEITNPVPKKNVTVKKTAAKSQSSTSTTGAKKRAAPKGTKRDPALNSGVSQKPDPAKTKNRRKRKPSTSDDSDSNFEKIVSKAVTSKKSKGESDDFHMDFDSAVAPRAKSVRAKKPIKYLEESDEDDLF

Structure (SMILES)	pIC50 (K562)	pIC50 (A549)	pIC50 (HL-60)	inhibition [1]	inhibition [2]	pIC50 (HeLa)	inhibition [3]	inhibition [4]	Ratio IC50 [5]	pIC50 [6]	inhibition [7]
CCCc1ccc(-c2cn(C3COC4=C(Br)C(=O)C(=O)c5cccc3c54)nn2)cc1 (stereo unspecified)	5.55	4.76	5.83	Active	Active	4.93	inactive				
O=C1C(=O)c2cccc3c2C(=C1Cl)OCC3n1cc(C2CC2)nn1 (stereo unspecified)	4.30	< 4.00	4.30	Active	Active	< 4.00					
CCOC(=O)c1cn(C2COC3=C(Cl)C(=O)C(=O)c4cccc2c43)nn1 (stereo unspecified)	< 4.30	< 4.00	< 4.00	Active	Active	< 4.00					
CCc1ccc(-c2cn(C3COC4=C(Br)C(=O)C(=O)c5cccc3c54)nn2)cc1 (stereo unspecified)	4.84	4.64	5.31	Active	Active	4.78					
CCCCCc1ccc(-c2cn(C3COC4=C(Cl)C(=O)C(=O)c5cccc3c54)nn2)cc1 (stereo unspecified)	5.45	4.89	5.45	Active	Active	4.77					
COC(=O)c1cn(C2COC3=C(Cl)C(=O)C(=O)c4cccc2c43)nn1 (stereo unspecified)	< 4.30	< 4.00	4.01	Active	Active	< 4.00					
O=C1C(=O)c2cccc3c2C(=C1Br)OCC3n1cc(C2CC2)nn1 (stereo unspecified)	4.40	< 4.30	4.64	Active	Active	4.37					
COc1cc([C@@H]2c3cc4c(cc3[C@@H](O[C@@H]3O[C@@H]5CO[C@@H](C)O[C@H]5[C@H](O)[C@H]3O)[C@H]3COC(=O)[C@H]23)OCO4)cc(OC)c1O [ETOPOSIDE]	5.07		6.48			4.20		Active			
CCCCCc1ccc(-c2cn(C3COC4=C(Br)C(=O)C(=O)c5cccc3c54)nn2)cc1 (stereo unspecified)	5.39	4.82	5.63	Active	Active	5.11			20	6.04	
O=C1C(=O)c2cccc3c2C(=C1Cl)OCC3n1cc(-c2ccc(Cl)cc2)nn1 (stereo unspecified)	4.69	4.11	4.91	Active	Active	4.17					
O=C1C(=O)c2cccc3c2C(=C1Br)OCC3n1cc(-c2ccccc2)nn1 (stereo unspecified)	4.40	4.30	4.53	Active	Active	4.37					
O=C1C(=O)c2cccc3c2C(=C1Br)OCC3n1cc(-c2ccc(Cl)cc2)nn1 (stereo unspecified)	4.54	4.30	4.81	Active	Active	4.51					
O=C1C(=O)c2cccc3c2C(=C1Cl)OCC3n1cc(-c2ccc(F)cc2)nn1 (stereo unspecified)	4.78	4.37	4.97	Active	Active	4.32					
O=C1C(=O)c2cccc3c2C(=C1Br)OCC3n1cc(-c2ccccn2)nn1 (stereo unspecified)	5.49	4.82	5.68	Active	Active	4.79					
CCOC(=O)c1cn(C2COC3=C(Br)C(=O)C(=O)c4cccc2c43)nn1 (stereo unspecified)	< 4.30	< 4.30	< 4.30	Active	Active	< 4.30					
Cc1ccc(-c2cn(C3COC4=C(Cl)C(=O)C(=O)c5cccc3c54)nn2)cc1 (stereo unspecified)	4.74	4.26	4.70	Active	Active	4.48					
COc1ccc(-c2cn(C3COC4=C(Cl)C(=O)C(=O)c5cccc3c54)nn2)cc1 (stereo unspecified)	4.53	4.29	5.15	Active	Active	4.39					
CCCc1ccc(-c2cn(C3COC4=C(Cl)C(=O)C(=O)c5cccc3c54)nn2)cc1 (stereo unspecified)	5.41	4.55	5.62	Active	Active	4.61					
CCCCc1ccc(-c2cn(C3COC4=C(Cl)C(=O)C(=O)c5cccc3c54)nn2)cc1 (stereo unspecified)	5.25	4.94	5.59	Active	Active	4.74					
CCc1ccc(-c2cn(C3COC4=C(Cl)C(=O)C(=O)c5cccc3c54)nn2)cc1 (stereo unspecified)	4.98	4.53	5.54	Active	Active	4.54					inactive
O=C1C(=O)c2cccc3c2C(=C1Cl)OCC3n1cc(-c2ccccn2)nn1 (stereo unspecified)	5.23	4.75	5.57	Active	Active	4.54					
CCCCc1ccc(-c2cn(C3COC4=C(Br)C(=O)C(=O)c5cccc3c54)nn2)cc1 (stereo unspecified)	5.41	4.74	5.59	Active	Active	4.90					
O=C1C(=O)c2cccc3c2C(=C1Cl)OCC3n1cc(-c2ccccc2)nn1 (stereo unspecified)	4.67	4.07	4.74	Active	Active	4.15					
Cc1ccc(-c2cn(C3COC4=C(Br)C(=O)C(=O)c5cccc3c54)nn2)cc1 (stereo unspecified)	4.73	4.37	4.99	Active	Active	4.58					
COC(=O)c1nnn(C2COC3=C(Cl)C(=O)C(=O)c4cccc2c43)c1C(=O)OC (stereo unspecified)	< 4.30	< 4.00	< 4.00	Active	Active	< 4.00					
COC(=O)c1nnn(C2COC3=C(Br)C(=O)C(=O)c4cccc2c43)c1C(=O)OC (stereo unspecified)	< 4.30	< 4.30	< 4.30	Active	Active	< 4.30					
O=C1C(=O)c2cccc3c2C(=C1Br)OCC3n1cc(-c2ccc(F)cc2)nn1 (stereo unspecified)	4.45	4.30	4.91	Active	Active	4.52					
COC(=O)c1cn(C2COC3=C(Br)C(=O)C(=O)c4cccc2c43)nn1 (stereo unspecified)	< 4.30	< 4.30	< 4.30	Active	Active	< 4.30					
CC1=C2OCC(C)c3ccc(C)c(c32)C(=O)C1=O (stereo unspecified) [MANSONONE E]	4.91	4.76	4.97			4.80				4.73	
COc1ccc(-c2cn(C3COC4=C(Br)C(=O)C(=O)c5cccc3c54)nn2)cc1 (stereo unspecified)	4.90	4.34	4.99	Active	Active	4.57					

Reference: ChEMBL document CHEMBL2424646, “Design, synthesis and biological evaluation of novel mansonone E derivatives prepared via CuAAC click chemistry as topoisomerase II inhibitors” (Eur J Med Chem, 2013)
